Converted amounts (≈) assume the structure as drawn.
What was measured:
[1] = system: MCF-7 (estrogen receptor positive breast cancer); assay: In vitro anticancer assay (SRB), MCF-7; format: cell-based, human; conditions: for IC50: MCF7, 72 h, read-out: ED50, MCF-7 (ER+)
Method: (§1) All stock cultures were grown in T-25 flasks. Freshly trypsinized cell suspensions were seeded in 96-well microtiter plates at densities of 1500-7500 cells per well with compounds added from DMSO-diluted stock. After 3 days in culture, attached cells were fixed with cold 50% trichloroacetic acid and then stained with 0.4% sulforhodamine B (SRB). The absorbency at 562 nm was measured using a microplate reader after solubilizing the bound dye.
as §1, with “Biological assay. All” for “All”, “cultures are” for “cultures were”, “96-well microtitre” for “96-well microtiter”

[2] = system: MDA-MB-231 (estrogen receptor negative breast cancer); assay: In vitro anticancer assay (SRB), MDA-MB-231; format: cell-based, human; conditions: concentration that reduces cell growth by 50%, 3 days in culture, SRB; for IC50: Homo sapiens, MDA-MB-231, 72 h, read-out: ED50, MDA-MB-231 (ER−)
Method: as §1
as §1, with “Biological assay. All” for “All”, “cultures are” for “cultures were”, “96-well microtitre” for “96-well microtiter”

[3] = system: SK-BR-3 (HER-2-overexpressing breast cancer); assay: In vitro anticancer assay (SRB), SK-BR-3; format: cell-based, human; conditions: Homo sapiens, SK-BR-3, 72 h; concentration that reduces cell growth by 50%, 3 days in culture, SRB; read-out: ED50, SK-BR-3 (ER−, HER2+)
Method: (§2) In Vitro Anticancer Assay (Nakanishi, Y. et al., J. Med. Chem. 2003, 46, 3185). All stock cultures were grown in T-25 flasks. Freshly trypsinized cell suspensions were seeded in 96-well microtiter plates at densities of 1500-7500 cells per well with compounds added from DMSO-diluted stock. After 3 days in culture, attached cells were fixed with cold 50% trichloroacetic acid and then stained with 0.4% sulforhodamine B (SRB). The absorbency at 562 nm was measured using a microplate reader after solubilizing the bound dye. The mean ED50 is the concentration of agent that reduces cell growth by 50% under the experimental conditions and is the average from at least three independent determinations that were reproducible and statistically significant (FIG. 2). The following human tumor cell lines were used in the assay: A549 (non small cell lung cancer), MCF-7 (estrogen receptor positive breast cancer), ZR-75-1 (estrogen receptor positive breast cancer), MDA-MB-231 (estrogen receptor negative breast cancer), HS 587-T (estrogen receptor negative breast cancer), SK− BR-3 (HER-2-overexpressing breast cancer), A431 (EGFRoverexpressing skin cancer), LN-CaP (AR-dependent prostate cancer), SW620 (colon cancer), PC-3 (prostate cancer), KB (nasopharyngeal carcinoma), KB-VIN (vincristine-resistant KB subline). All cell lines were obtained from the Lineberger Comprehensive Cancer Center (UNC-CH) or from ATCC (Rockville, Md.) and were cultured in RPMI-1640 medium supplemented with 25 mMHEPES, 0.25% sodium bicarbonate, 10% fetal bovine serum, and 100 μg/mL kanamycin.
(§3) Biological assay. All stock cultures are grown in T-25 flasks. Freshly trypsinized cell suspensions were seeded in 96-well microtitre plates at densities of 1500-7500 cells per well with compounds added from DMSO-diluted stock. After 3 days in culture, attached cells were fixed with cold 50% trichloroacetic acid and then stained with 0.4% sulforhodamine B (SRB). The absorbency at 562 nm was measured using a microplate reader after solubilizing the bound dye. The mean ED50 is the concentration of agent that reduces cell growth by 50% under the experimental conditions and is the average from at least three independent determinations that were reproducible and statistically significant. The following human tumor cell lines were used in the assay: A549 (non-small cell lung cancer), MCF-7 (estrogen receptor positive breast cancer), ZR-75-1 (estrogen receptor positive breast cancer), MDA MB-231 (estrogen receptor negative breast cancer), HS 587-T (estrogen receptor negative breast cancer), SK-BR-3 (estrogen receptor negative, HER-2 over-expressing breast cancer), A431 (EGFR over-expressing skin cancer), LN-CaP (AR-dependent prostate cancer), SW620 (colon cancer), PC-3 (prostate cancer), KB (nasopharyngeal carcinoma), KB-VIN (Vincristine resistant KB subline). All cell lines were obtained from the Lineberg Cancer Center (UNC-CH) or from ATCC (Rockville, Md.) and were cultured in RPMI-1640 medium supplemented with 25 mM HEPES, 0.25% sodium bicarbonate, 10% fetal bovine serum, and 100 μg/mL kanamycin.

[4] = system: A431 (EGFR over-expressing skin cancer); assay: In vitro anticancer assay (SRB), A431; format: cell-based, human; conditions: Homo sapiens, A-431, 72 h; concentration that reduces cell growth by 50%, 3 days in culture, SRB; read-out: ED50, A431
Method: as §2, §3

[5] = system: KB (nasopharyngeal carcinoma); assay: In vitro anticancer assay (SRB), KB; format: cell-based, human; conditions: Homo sapiens, 72 h; concentration that reduces cell growth by 50%, 3 days in culture, SRB; read-out: ED50, KB
Method: as §2, §3

SW620 (colon cancer) = assay: In vitro anticancer assay (SRB), SW620; format: cell-based, human; conditions: Homo sapiens, SW-620, 72 h; concentration that reduces cell growth by 50%, 3 days in culture, SRB; read-out: ED50, SW620
Method: as §2, §3

[6] = system: ER+ human breast cancer (MCF-7 and ZR-75-1); assay: Comparison of potency and selectivity against ER+ breast cancer cell lines in vitro; format: cell-based; conditions: against ER+ cell lines
Method: as §2
as §1, with “Biological assay. All” for “All”, “cultures are” for “cultures were”, “96-well microtitre” for “96-well microtiter”, “dye. The mean ED50 is the concentration of agent that reduces cell growth by 50% under the experimental conditions and is the average from at least three independent determinations that were reproducible and statistically significant. […]” for “dye.”

[7] = system: HS 587-T (estrogen receptor negative breast cancer); assay: In vitro anticancer assay (SRB), HS 587-T; format: cell-based, human; conditions: concentration that reduces cell growth by 50%, 3 days in culture, printed HS587-1 in Table 4
Method: as §1
as §1, with “Biological assay. All” for “All”, “cultures are” for “cultures were”, “96-well microtitre” for “96-well microtiter”

[8] = system: ZR-75-1 (estrogen receptor positive breast cancer); assay: In vitro anticancer assay (SRB), ZR-75-1; format: cell-based, human; conditions: Homo sapiens, ZR-75-1, 72 h, concentration that reduces cell growth by 50%, 3 days in culture, read-out: ED50, ZR-75-1 (ER+)
Method: as §1
as §1, with “Biological assay. All” for “All”, “cultures are” for “cultures were”, “96-well microtitre” for “96-well microtiter”

[9] = system: several human cancer cell lines; assay: Cytotoxic activity against several human tumor cell lines (panel, overall statements); format: cell-based; conditions: several human tumor cell lines, Table 4
Method: as §2
as §1, with “Biological assay. All” for “All”, “cultures are” for “cultures were”, “96-well microtitre” for “96-well microtiter”, “dye. […]” for “dye.”

[10] = Homo sapiens, concentration that reduces cell growth by 50%, 3 days in culture, SRB

Structure (SMILES)	IC50 [1, 10]	inhibition at 20 µg/mL ([1]; Homo sapiens, MCF7, at 20 μg/mL (Table 4), read-out: Percent inhibition at the test concentration (bracketed value), MCF-7)	IC50 [2]	melting point	IC50 [3]	IC50 [4]	IC50 [5]	IC50 (SW620 (colon cancer))	times better activity than compound 2a and tamoxifen [6]	ED50, HS 587-T (ER−) [7]	IC50 [8]	overall cytotoxic activity (in words) [9]	ED50, MCF-7 (ER+) ([1]; concentration that reduces cell growth by 50%, 3 days in culture, SRB)	ED50, MDA-MB-231 (ER−) [2]
O=c1oc2c3ccccc3ccc2c2occc12 [Compound 4a, 11,15-Dioxa-cyclopenta[a]phenanthren-12-one]	> 20 µg/mL	17%	10.5 µg/mL (≈ 44.4 µM)	198 to 200 °C										
CCc1cccc2c1ccc1c3occc3c(=O)oc21 [Compound 4c, 4-Ethyl-11,15-dioxa-cyclopenta[a]phenanthren-12-one]	> 10 µg/mL		> 10 µg/mL	173 to 174 °C										
C[C@H]1COC2=C1C(=O)C(=O)c1c2ccc2c1CCCC2(C)C [cryptotanshinone, reference compound]	0.41 µg/mL (≈ 1.38 µM)		0.16 µg/mL (≈ 0.54 µM)											
CCc1cccc2c1ccc1c3occ(C)c3c(=O)oc21 [Compound 2c, 4-Ethyl-17-methyl-11,15-dioxa-cyclopenta[a]phenanthren-12-one]	0.45 µg/mL (≈ 1.62 µM)		10.3 µg/mL (≈ 37 µM)	145 to 147 °C	0.1 µg/mL (≈ 0.359 µM)	> 10 µg/mL	> 10 µg/mL	> 10 µg/mL	10 times	10 µg/mL (≈ 35.9 µM)	0.18 µg/mL (≈ 0.647 µM)			
Cc1cccc2c1ccc1c3occc3c(=O)oc21 [Compound 4b, 4-Methyl-11,15-dioxa-cyclopenta[a]phenanthren-12-one]	5.5 µg/mL (≈ 22 µM)			220 to 222 °C	8.5 µg/mL (≈ 34 µM)	8.3 µg/mL (≈ 33.2 µM)	> 10 µg/mL	> 10 µg/mL			> 10 µg/mL			
COc1cc2c3occ(C)c3c(=O)oc2c2ccccc12 [Compound 2e, 6-Methoxy-17-methyl-11,15-dioxa-cyclopenta[a]phenanthren-12-one]	5 µg/mL (≈ 17.8 µM)			203 to 205 °C	8.6 µg/mL (≈ 30.7 µM)	9.5 µg/mL (≈ 33.9 µM)	> 10 µg/mL	9 µg/mL (≈ 32.1 µM)			> 10 µg/mL	did not show strong activity		
CCc1cccc2c1ccc1c3c(c(=O)oc12)C(O)CO3 (centres unmarked) [Compound 3c, 4-Ethyl-17-hydroxy-16,17-dihydro-11,15-dioxa-cyclopenta[a]phenanthren-12-one]	5 µg/mL (≈ 17.7 µM)		5 µg/mL (≈ 17.7 µM)	163 to 165 °C		3 µg/mL (≈ 10.6 µM)								
Cc1cccc2c1ccc1c3c(c(=O)oc12)C(O)CO3 (centres unmarked) [Compound 3b, 17-Hydroxy-4-methyl-16,17-dihydro-11,15-dioxa-cyclopenta[a]phenanthren-12-one]	8.3 µg/mL (≈ 30.9 µM)				8 µg/mL (≈ 29.8 µM)	3.2 µg/mL (≈ 11.9 µM)	> 10 µg/mL	> 10 µg/mL			> 10 µg/mL			
O=c1oc2c(cc(Cl)c3ccccc32)c2c1C(O)CO2 (centres unmarked) [Compound 3d, 6-Chloro-17-hydroxy-16,17-dihydro-11,15-dioxa-cyclopenta[a]phenanthren-12-one]	5.6 µg/mL (≈ 19.4 µM)			150 °C	8 µg/mL (≈ 27.7 µM)	7.8 µg/mL (≈ 27 µM)	9.5 µg/mL (≈ 32.9 µM)	4.2 µg/mL (≈ 14.5 µM)			> 10 µg/mL			
Cc1coc2c1C(=O)C(=O)c1c-2ccc2c1CCCC2(C)C [tanshinone IIA, reference compound]	0.38 µg/mL (≈ 1.29 µM)		0.7 µg/mL (≈ 2.38 µM)											
COc1cc2c3c(c(=O)oc2c2ccccc12)C(O)CO3 (centres unmarked) [Compound 3e, 17-Hydroxy-6-methoxy-16,17-dihydro-11,15-dioxa-cyclopenta[a]phenanthren-12-one]	5.6 µg/mL (≈ 19.7 µM)			210 to 212 °C	9 µg/mL (≈ 31.7 µM)	6.5 µg/mL (≈ 22.9 µM)	6.8 µg/mL (≈ 23.9 µM)	> 10 µg/mL			5.7 µg/mL (≈ 20.1 µM)			
COc1cc2c3occc3c(=O)oc2c2ccccc12 [Compound 4e, 6-Methoxy-11,15-dioxa-cyclopenta[a]phenanthren-12-one]	3.4 µg/mL (≈ 12.8 µM)			194 to 195 °C	4 µg/mL (≈ 15 µM)	9.5 µg/mL (≈ 35.7 µM)	9.5 µg/mL (≈ 35.7 µM)	4 µg/mL (≈ 15 µM)			8.5 µg/mL (≈ 31.9 µM)			
Cc1coc2c1C(=O)C(=O)c1c-2ccc2c(C)cccc12 [tanshinone I, reference compound]													0.82 µg/mL (≈ 2.97 µM)	0.75 µg/mL (≈ 2.71 µM)
Cc1coc2c1c(=O)oc1c3ccccc3ccc21 [Compound 2a, 17-Methyl-11,15-dioxa-cyclopenta[a]phenanthren-12-one]	4 µg/mL (≈ 16 µM)		10.3 µg/mL (≈ 41.2 µM)	205 to 207 °C						7.5 µg/mL (≈ 30 µM)	4 µg/mL (≈ 16 µM)			
O=c1oc2c(ccc3ccccc32)c2c1C(O)CO2 (centres unmarked) [Compound 3a, 17-Hydroxy-16,17-dihydro-11,15-dioxa-cyclopenta[a]phenanthren-12-one]	12.5 µg/mL (≈ 49.2 µM)		3.8 µg/mL (≈ 14.9 µM)	203 to 205 °C										
Cc1coc2c1c(=O)oc1c3ccccc3c(Cl)cc21 [Compound 2d, 6-Chloro-17-methyl-11,15-dioxa-cyclopenta[a]phenanthren-12-one]	5 µg/mL (≈ 17.6 µM)			220 to 221 °C	4.5 µg/mL (≈ 15.8 µM)	8 µg/mL (≈ 28.1 µM)	> 10 µg/mL	> 10 µg/mL			8.6 µg/mL (≈ 30.2 µM)	did not show strong activity		
O=c1oc2c3ccccc3c(Cl)cc2c2occc12 [Compound 4d, 6-Chloro-11,15-dioxa-cyclopenta[a]phenanthren-12-one]	7 µg/mL (≈ 25.9 µM)			150 °C	> 10 µg/mL	> 10 µg/mL	> 10 µg/mL	> 10 µg/mL			> 10 µg/mL			
